Reference: ChEMBL document CHEMBL1126461, “Biologically active heparin-like fragments with a non-glycosaminoglycan structure. Part 3 : o-alkylated-o-sulphated pentasaccharides” (Bioorg Med Chem Lett, 1992)

Target: Coagulation factor X (Homo sapiens) (UniProt P00742)
Assay: Compound was evaluated for the inhibition of anti-thrombin III (AT III)-mediated coagulation proteinase factor Xa

Coagulation factor X (Homo sapiens), sequence (P00742 41-179 limits assumed): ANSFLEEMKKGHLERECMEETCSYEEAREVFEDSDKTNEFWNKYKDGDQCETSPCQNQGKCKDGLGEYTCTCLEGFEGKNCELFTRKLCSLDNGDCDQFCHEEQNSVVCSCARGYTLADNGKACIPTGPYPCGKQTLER
Coagulation factor X (Homo sapiens), sequence (P00742 235-488 limits assumed): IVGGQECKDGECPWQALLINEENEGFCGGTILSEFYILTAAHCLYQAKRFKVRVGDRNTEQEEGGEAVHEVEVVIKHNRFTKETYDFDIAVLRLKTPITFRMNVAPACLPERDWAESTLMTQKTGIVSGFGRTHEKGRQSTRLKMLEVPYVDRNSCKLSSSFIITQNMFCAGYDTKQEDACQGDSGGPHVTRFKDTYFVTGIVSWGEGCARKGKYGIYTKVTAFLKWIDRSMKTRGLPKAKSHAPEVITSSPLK

| Activity | SMILES |
| --- | --- |
| 994 U mg-1 | CCCCO[C@@H]1[C@@H](OS(=O)(=O)O)[C@H](O[C@H]2[C@H](OS(=O)(=O)O)[C@@H](OS(=O)(=O)O)[C@@H](OC)O[C@@H]2COS(=O)(=O)O)O[C@@H](C(=O)O)[C@H]1O[C@@H]1O[C@H](COS(=O)(=O)O)[C@@H](O[C@@H]2O[C@H](C(=O)O)[C@@H](O[C@@H]3O[C@H](COS(=O)(=O)O)[C@@H](OC)[C@H](OC)[C@H]3OS(=O)(=O)O)[C@H](OC)[C@H]2OC)[C@H](OS(=O)(=O)O)[C@H]1OS(=O)(=O)O |
| 700 U mg-1 | CCCCCCCCO[C@@H]1[C@@H](OS(=O)(=O)O)[C@H](O[C@H]2[C@H](OS(=O)(=O)O)[C@@H](OS(=O)(=O)O)[C@@H](OC)O[C@@H]2COS(=O)(=O)O)O[C@@H](C(=O)O)[C@H]1O[C@@H]1O[C@H](COS(=O)(=O)O)[C@@H](O[C@@H]2O[C@H](C(=O)O)[C@@H](O[C@@H]3O[C@H](COS(=O)(=O)O)[C@@H](OC)[C@H](OC)[C@H]3OS(=O)(=O)O)[C@H](OCCCC)[C@H]2OCCCC)[C@H](OS(=O)(=O)O)[C@H]1OS(=O)(=O)O |
| 1500 U mg-1 | CCCCO[C@@H]1[C@@H](OS(=O)(=O)O)[C@H](O[C@H]2[C@H](OC)[C@@H](OC)[C@H](O[C@H]3[C@H](OS(=O)(=O)O)[C@@H](OS(=O)(=O)O)[C@H](O[C@H]4[C@H](OC)[C@@H](OS(=O)(=O)O)[C@H](O[C@H]5[C@H](OS(=O)(=O)O)[C@@H](OS(=O)(=O)O)[C@@H](OC)O[C@@H]5COS(=O)(=O)O)O[C@H]4C(=O)O)O[C@@H]3COS(=O)(=O)O)O[C@@H]2C(=O)O)O[C@H](COS(=O)(=O)O)[C@H]1OCCCC |
| 1100 U mg-1 | CCCCO[C@@H]1[C@@H](OCCCC)[C@H](O[C@H]2[C@H](OS(=O)(=O)O)[C@@H](OS(=O)(=O)O)[C@H](O[C@H]3[C@H](OC)[C@@H](OS(=O)(=O)O)[C@H](O[C@H]4[C@H](OS(=O)(=O)O)[C@@H](OS(=O)(=O)O)[C@@H](OC)O[C@@H]4COS(=O)(=O)O)O[C@H]3C(=O)O)O[C@@H]2COS(=O)(=O)O)O[C@H](C(=O)O)[C@H]1O[C@@H]1O[C@H](COS(=O)(=O)O)[C@@H](OC)[C@H](OC)[C@H]1OS(=O)(=O)O |
| 1250 U mg-1 | CO[C@H]1O[C@H](COS(=O)(=O)O)[C@@H](O[C@@H]2O[C@@H](C(=O)O)[C@@H](O[C@@H]3O[C@H](COS(=O)(=O)O)[C@@H](O[C@@H]4O[C@H](C(=O)O)[C@@H](O[C@@H]5O[C@H](COS(=O)(=O)O)[C@@H](O)[C@H](O)[C@H]5NS(=O)(=O)O)[C@H](O)[C@H]4O)[C@H](OS(=O)(=O)O)[C@H]3NS(=O)(=O)O)[C@H](O)[C@H]2OS(=O)(=O)O)[C@H](OS(=O)(=O)O)[C@H]1NS(=O)(=O)O |
| 434 U mg-1 | CO[C@H]1O[C@H](COS(=O)(=O)O)[C@@H](O[C@@H]2O[C@@H](C(=O)O)[C@@H](O[C@@H]3O[C@H](COS(=O)(=O)O)[C@@H](O[C@@H]4O[C@H](C(=O)O)[C@@H](O[C@@H]5O[C@H](COS(=O)(=O)O)[C@@H](OC)[C@H](OC)[C@H]5OS(=O)(=O)O)[C@H](OC)[C@H]4OC)[C@H](OS(=O)(=O)O)[C@H]3OS(=O)(=O)O)[C@H](OCCCc3ccccc3)[C@H]2OS(=O)(=O)O)[C@H](OS(=O)(=O)O)[C@H]1OS(=O)(=O)O |
| 1320 U mg-1 | CO[C@H]1O[C@H](COS(=O)(=O)O)[C@@H](O[C@@H]2O[C@@H](C(=O)O)[C@@H](O[C@@H]3O[C@H](COS(=O)(=O)O)[C@@H](O[C@@H]4O[C@H](C(=O)O)[C@@H](O[C@@H]5O[C@H](COS(=O)(=O)O)[C@@H](OC)[C@H](OC)[C@H]5OS(=O)(=O)O)[C@H](OC)[C@H]4OC)[C@H](OS(=O)(=O)O)[C@H]3OS(=O)(=O)O)[C@H](OC)[C@H]2OS(=O)(=O)O)[C@H](OS(=O)(=O)O)[C@H]1OS(=O)(=O)O |
